The values below come from patent US20160257928A1, “Method for producing pluripotent stem cell having improved chimera forming ability from primed pluripotent stem cell, and composition and combination therefor” (The University of Tokyo, priority 2015, published 2016).

Bounds are passed on as bounds.

Experiment [1] relates to Wnt/β catenin signal. Briefly: Western blotting of β catenin in cytoplasmic and nuclear fractions. The format is cell-based, mouse. The note with it: EB3DR-EpiSC; for inhibition of Wnt/β catenin signal: Western blotting (FIG. 4 (A)). As for the experimental part: First, in order to confirm the effect of IWP-2 on a Wnt/β catenin signal inhibition, the amount of protein in β catenin was checked by Western blotting. The EB3DR-EpiSC was cultured under the aforementioned culturing conditions, IWP-2 (at a final concentration of 5 nM) was added thereto, and the resultant was cultured for another 2 days. As a control, the same amount of DMSO was added instead of IWP-2. Next, Nuclear/Cytosol Fractionation Kit (Bio Vision, manufactured by Mountain View, Calif.) was used in accordance with the manufacturer's manual to separate a cytoplasmic fraction and a nuclear fraction. Each of these fractions thus obtained was dissolved in Laemmli Sample Buffer (Bio-Rad, manufactured by Hercules, Calif.) to perform SDS-PAGE. A protein separated by the SDS-PAGE was blotted on a PVDF transfer membrane (manufactured by Millipore Corporation) to perform a primary antibody reaction.
As a primary antibody, an anti-β catenin antibody (#9562, 1:1000), an anti-(β-actin antibody (#3770, 1:1000), or an anti-histone H3 antibody (#4499, 1:2000) purchased from Cell Signaling Technology Inc. was used. As a secondary antibody, for the anti-β catenin antibody or the anti-histone H3 antibody, an anti-rabbit IgG Horseradish peroxidase-conjugated antibody (NA934V, 1:100, manufactured by GE Healthcare UK, Little Chalfont, UK) was used for the reaction, and for the anti-β-actin antibody, an anti-mouse IgG Horseradish peroxidase-conjugated antibody (NA931V, 1:1000, manufactured by GE Healthcare UK, Little Chalfont, UK) was used for the reaction, and then a band bonded to the secondary antibody was detected by SuperSignal West Pico Chemiluminescent Substrate (manufactured by Thermo Fisher Scientific Inc., Rockford, Ill.). As a result, it was confirmed that the amount of β catenin was reduced in the nuclear fraction by IWP-2 and that a Wnt/β catenin signal was thus inhibited (see FIG. 4, (A)).
(In general: Immunoblotting shows a protein as a band on a membrane.)

Experiment [2] deals with EB3DR-EpiSC. Briefly: Naive pluripotent stem cell-like colony formation of EpiSC. It counts as cell-based, mouse. As for the experimental part: The EB3DR-EpiSC was cultured in N2B27 medium (Ying et al., Nature (2008), 435, 519-523) supplemented with 1,000 U/mL of mouse LIF and 1 μM of PD0325901 (manufactured by Axon, Groeningen, The Netherlands). To the resultant, 5 nM of IWP-2 (manufactured by Wako Pure Chemical Industries, Ltd., Osaka, Japan) was added, or CHIR known as an inhibitor of GSK3β or the same amount of DMSO was added instead of IWP-2, so as to check the influence on the EB3DR-EpiSC.
(§1) The naive-like colony formation and the chimera formation were checked in the same manner as described above except that XAV939 (manufactured by Sigma-Aldrich, S. Louis, Mo., USA) was used as the Wnt/β catenin signal inhibitor instead of IWP-2.

The test system of experiment [3] is EB3DR-EpiSC. Briefly: CD31 (PECAM-1) expression by FACS. The note with it: for expression of CD31 (CD31 positive cell frequency): in the presence of LIF. The format is cell-based, mouse. As for the experimental part: Next, the expression of CD31 (PECAM-1) in these cells was analyzed. The expression level of CD31 was checked by the FACS by using an APC labeled rat anti-mouse CD31 antibody (manufactured by eBioscience, 17-0311). […] When a colony of the CD31 expressing cell was cloned and subcultured, a mouse ES cell-like morphology was obtained (see FIG. 4, (G)), and such a cell could be subcultured continuously for a long period of time similarly to a mouse ES cell. Since the cell was derived from the EB3DR-EpiSC, DsRed was expressed therein (see FIG. 4, (H)).
as §1
(In general: Flow cytometry measures light scatter and fluorescence of single cells or particles in a stream.)

Experiment [4] concerns EB3DR-EpiSC. Briefly: Chimera forming ability after injection into mouse blastocyst. It counts as in vivo. As to conditions: EpiSC treated with LIF and the inhibitor, about 10 cells injected per embryo. As for the experimental part:
Furthermore, the chimera forming ability of the EB3DR-EpiSC treated with LIF and IWP-2 was checked. Specifically, the embryo of a BDF1 (C57BL6/N; DBA1 F1) mouse was cultured in Medium 2 (manufactured by Millipore Corporation) to the eight-cell stage or morula stage. The resultant embryo was transferred to KSOM medium (manufactured by Millipore Corporation) and cultured for 24 hours to be developed to the blastocyst stage. For the injection into an embryo, the cell was dissociated into a single cell by a trypsin treatment, and the resultant was suspended in a medium. A zona pellucida was perforated under a microscope by using a piezoelectric micromanipulator, and a chimeric embryo was produced by injecting approximately 10 cells into a space below the zona pellucida in each embryo. After the injection, the embryo was cultured in KSOM medium until a blastomere was obtained, and then, the resultant was transplanted into the uterus of a pseudopregnant ICR recipient female mouse. The chimera formation was checked on the basis of the color of a fur. A cell derived from BDF1×C57BL/6 grows a black fur, and a cell derived from 129/Ola grows a brown (agouti-colored) fur. […]

Experiment [5] relates to STAT3 signal. Briefly: Western blotting of phosphorylated STAT3. It counts as cell-based, mouse. As to conditions: EB3DR-EpiSC, 2nd day after stimulation. An excerpt: Besides, the EB3DR-EpiSC was stimulated with LIF, the resultant cell was collected on the 2nd day after stimulation, and the activation of a STAT3 signal was checked by the Western blotting. The activation of a STAT3 signal was checked on the basis of the presence of phosphorylated STAT3. The phosphorylated STAT3 was detected by using, as a primary antibody, an anti-P-STAT3 antibody (#9145, 1:2000, manufactured by Cell Signaling Technology Inc.) […] specifically recognizing phosphorylated STAT3.

In experiment [6] the test system is EB3DR-EpiSC-TRE-Cdh1. Briefly: CD31 expression by FACS in E-cadherin induced EpiSC. The format is cell-based, mouse. As to conditions: 7 days, with forced expression of E-cadherin (Dox(+), 10 μg/mL doxycycline). The procedure: The EB3DR-EpiSC-TRE-Cdh1 was cultured for 7 days in the presence of a basic fibroblast growth factor (bFGF) or LIF in a usual medium (Dox(−)) or a medium supplemented with 10 μg/mL of doxycycline (Dox(+)), and the resultant cell was dissociated with a trypsin/EDTA solution and stained with an APC labeled anti-mouse CD31 antibody to be analyzed by using the FACS.

On to `Cc1ccc2nc(NC(=O)CSc3nc4c(c(=O)n3-c3ccccc3)SCC4)sc2c1` [IWP-2, N-(6-methyl-2-benzothiazolyl)-2-[(3,4,6,7-tetrahydro-4-oxo-3-phenylthieno[3,2-d]pyrimidine-2-yl)thio]-acetamide], for which the “inhibition of Wnt/β catenin signal” value in experiment [1] is on record as “inhibited”. Further, the “amount of β catenin in the nuclear fraction” value in experiment [1] (final concentration 5 nM, 2 days, vs DMSO) was “reduced”. Besides, the “appearance of a colony corresponding to a naive pluripotent stem cell-like morphology, time after culture” value in experiment [2] (N2B27 medium with 1,000 U/mL mouse LIF and 1 μM PD0325901, 5 nM IWP-2) was ≤ 7 days. In addition, the “appearance frequency of a colony characteristic to the naive pluripotent stem cell on the 14th day after culture” value in experiment [2] (N2B27 medium with LIF and PD0325901, 5 nM IWP-2, vs CHIR or DMSO) was “significantly increased”. The “expression of CD31 (CD31 positive cell frequency)” value in experiment [3] is recorded as “expressed at a high frequency in a short period of time”. Further, in experiment [4], the “chimera formation (production of a chimeric animal)” value is recorded as “confirmed, based on the fur color, as a chimeric mouse”. Besides, in experiment [5], the “activation of a STAT3 signal (presence of phosphorylated STAT3)” value was “also observed”.

In the case of `O=c1[nH]c(-c2ccc(C(F)(F)F)cc2)nc2c1CSCC2` [XAV939, 3,5,7,8-tetrahydro-2-[4-(trifluoromethyl)phenyl]-4H-thiopyrano[4,3-d]pyrimidine-4-one], the “inhibition of Wnt/β catenin signal” value in experiment [1] was “work as an inhibitor of a Wnt/β catenin signal”. In addition, the “naive-like colony formation on the 7th day after treatment” value in experiment [2] (LIF used in combination) is given as “formed a naive-like colony”. Besides, the “proportion of the CD31 (PECAM-1) positive cell on the 7th day after treatment” value in experiment [3] (LIF used in combination) is reported as “remarkably increased”. Further, in experiment [3], the “expression of CD31 (CD31 positive cell frequency)” value is reported as “observed at a high frequency”. Moreover, the “chimera formation (production of a chimeric animal)” value in experiment [4] was “a chimeric animal was produced”. The “activation of a STAT3 signal (presence of phosphorylated STAT3)” value in experiment [5] is listed as “also observed”.

With “bFGF: basic fibroblast growth factor, culture medium supplement”, in experiment [6], the “CD31 (Pecam1) positive cell proportion” value was “the level was merely restrictive”.
